# The METLIN SMRT retention time set (Domingo-Almenara et al. 2019)
# Assay: gradient 5% acetonitrile 3 min, to 50% in 2 min, to 85% in 15 min, held 3 min, 100 µL/min
# Details: column: Zorbax Extend-C18 2.1 x 50 mm; eluents: water / acetonitrile, 0.1% formic acid
# How it was run: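 Using water and acetonitrile that each contained 0.1% formic acid, mixtures of ~100 pure standards were separated at 100 μL/min on a Zorbax Extend-C18 column (2.1 × 50 mm, 1.8 μm). The HPLC fed a quadrupole time-of-flight mass spectrometer working in positive and negative ionization mode, with dead and dwell volumes of 40 μL and 900 μL. Data were acquired over 3 months. Retention time was read from computationally picked adduct peaks after manual inspection of each.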
row,SMILES,RP-LC retention time [s]
1,CCOc1cc(=O)n2c(c1C(=O)Nc1cc(OC)c(OC)c(OC)c1)CCCC2,967
2,CC1CCCN(C(=O)CN2CCN(C)CC2)C1 (stereo not given),536
3,Cc1ccc(Cn2cccc(S(=O)(=O)N3CCCC3)c2=O)cc1,859
4,COc1ccc(N2CCN(S(=O)(=O)c3cc(-c4cc(C(F)(F)F)[nH]n4)sc3C)CC2)cc1,1090
5,CNC(=O)c1ccccc1C(=O)NCCc1nc(-c2cnccn2)no1,555
6,COc1ccc(NC(=O)[C@@H]2c3ccccc3C(=O)N3CCCC[C@@H]23)c(OC)c1,752
7,O=C(c1cc(-c2ccncc2)n[nH]1)N1CCCC(C(=O)N2CCc3ccccc3C2)C1 (stereo not given),608
8,Cc1nc(-c2csc(S(=O)(=O)N3CCC(C(=O)N4CC=C(c5ccccc5)CC4)CC3)c2)no1,1000
9,O=C(c1nnc(-c2ccc(S(=O)(=O)N3CCOCC3)cc2)o1)N1CCCCCC1,862
10,Cc1nn(C)c(C)c1CNC(=O)CN1C(=O)C2CCCCN2c2ccc(S(=O)(=O)N(C)C)cc21 (stereo not given),693
11,O=C(Nc1ccc(N2CCN(C3CCCCC3)C2=O)nc1)c1cc(F)cc(F)c1,1020
12,CCCCN1CCN(C(=O)CCc2cc3ccc(C)cc3[nH]c2=O)CC1,628
13,Cn1nc(C(=O)N2CCC(Nc3cccnc3)C2)c2ccccc21 (stereo not given),781
14,Cc1cc(C)cc(C(=O)N2CCCC(COc3ccc(C(=O)NC(C)C)cc3)C2)c1 (stereo not given),931
15,O=C(c1ccc(Br)cc1)N1CCN(c2nc(CN3CCCCC3)cs2)CC1,655
16,CCCc1cc(N2CCN(C(=O)Cc3cccs3)CC2)nc2nnc(C)n12,620
17,CC(=O)c1ccc(NC(=O)CN2C(=O)NC3(CCC(C)CC3)C2=O)cc1 (stereo not given),762
18,O=C(NC1CCN(C(=O)N2C[C@H]3C[C@H](C2)[C@H]2CCCC(=O)N2C3)CC1)c1ccc2ccccc2n1,714
19,O=C(NC1CC1)C1CCN(c2nc3ccc(-c4cncnc4)nc3s2)CC1,672
20,CC(=O)Nc1ccc(C2(C(=O)N3CCCCC3)CCC2)cc1,711
21,CCC(=O)N1CCc2c(sc3ncnc(N)c23)C1,575
22,CCc1cccc(C)c1NC(=O)CSc1ccc(N2CCCC(C(=O)NC3CC3)C2)nn1 (stereo not given),662
23,CC(=O)N1CCC2(CC1)OC(=O)C(C)=C2C(=O)N1CCc2ccccc2C1,692
24,CCC(=O)N1c2ccc(S(=O)(=O)N3CCCCC3)cc2CC1C(=O)NCc1ccc(C)cc1 (stereo not given),955
25,COc1cccc(CNC(=O)C2(C)CCCN(C(=O)Nc3ccccc3C)C2)c1 (stereo not given),895
26,Cc1ccc(N2CCN(C(=O)C(C)(C)C)CC2)nn1,531
27,CCCNC(=O)C1CCCN(c2ccc(SCC(=O)Nc3ccccc3C(F)(F)F)nn2)C1 (stereo not given),690
28,O=c1n(CC2CO2)c(=O)n(CC2CO2)c(=O)n1CC1CO1 (stereo not given),675
29,CCN(Cc1ccccc1)C(=O)Cn1c(N)nc(C)cc1=O,596
30,O=C(NCc1ccccc1Cl)C1CCCN(S(=O)(=O)c2c[nH]c(C(=O)N3CCCC3)c2)C1 (stereo not given),790

# The remaining lines, values ahead:
row,RP-LC retention time [s],SMILES
1,594,O=C1C=C(Nc2cccnc2)c2ccccc2C1=O
2,764,CN(C)c1ccc(-c2nc3ccc(Cl)cn3c2Nc2ccc3c(c2)OCO3)cc1
3,848,CCS(=O)(=O)N1CC(=O)N(c2cccc(C)c2C)C(C)(C(=O)NCc2ccc(F)cc2)C1 (stereo not given)
4,895,COc1ccc(NC(=O)c2cc3c(=O)n(CC(C)C)ccc3n2C)cc1Cl
5,528,O=C(NC1CC1)[C@@H]1C[C@H](Oc2cccnc2)CN1C(=O)c1ccc2ncccc2c1
6,1090,COc1cccc(NC(=O)Cn2c(C)nc3c(sc4nc(-c5ccccc5)ccc43)c2=O)c1
7,1080,CCCN1C(=O)COc2ccc(-c3noc(Cc4cccc(OC)c4)n3)cc21
8,705,Cc1ccc(Cn2cc(-c3ccncc3)cc2C(=O)NCC2CC2)cc1
9,806,CCN1C(=O)c2cccnc2Sc2cc(NC(=O)c3ccc(OC)cc3)ccc21
10,802,Cc1cc2nn(CC(=O)Nc3ccc(Cl)cc3)c(=O)n2c(N2CCCC2)n1
11,589,Nc1nnc(Cc2ccc3c(c2)OCCO3)o1
12,936,COc1ccc(-c2nc3cnccn3c2Nc2ccc(C(C)C)cc2)cc1OC
13,708,O=C(c1cn(-c2cc(-c3nc(C4CC4)no3)ccn2)cn1)N1CCOCC1
14,1230,COc1ccc(Cl)cc1NC(=O)c1csc(-c2cn(C)c3ncccc23)n1
15,711,COc1cc(NC(=O)N2CCC(c3nc(C(=O)N(C)C)c(C)o3)CC2)cc(OC)c1
16,849,Cc1ccc(NC(=O)c2c(C)oc3nc(C)nc(N4CCOCC4)c23)c(C)c1
17,777,COC(=O)C1=CN(c2ccccc2)c2ccccc2S1(=O)=O
18,1100,Cc1nc(-c2cc(S(=O)(=O)Nc3cc(F)ccc3F)c(C)s2)sc1C

row,RP-LC retention time [s],SMILES
1,625,O=C(c1ccccn1)N1CCC(n2c(-c3ccsc3)nc3cccnc32)C1 (stereo not given)
2,1100,COc1ccc(-c2ncc3c(n2)CCN(S(=O)(=O)c2cccc(Cl)c2)C3)cc1
3,802,O=C(NCc1ccc(F)cc1Cl)C1CCCN(c2ncnc3c2oc2ccccc23)C1 (stereo not given)
4,703,NS(=O)(=O)c1ccc(NC(=O)C2CCCN(c3ccc(=O)n(-c4cccc(F)c4)n3)C2)cc1 (stereo not given)
5,1240,COc1ccc(C2Cn3nnc(-c4nc(-c5ccc(Cl)cc5)no4)c3CO2)cc1 (stereo not given)
6,746,CCOCCCNC(=O)c1nc(Nc2ccc(F)cc2)c2ccccc2n1
7,612,COc1ccc(Cl)c2c(=O)c3c([nH]c12)CCN(CC(=O)NCc1ccc(F)cc1)C3
8,910,O=C(CN1C(=O)CC(c2cccs2)=Nc2ccccc21)Nc1ccccc1F
9,1080,Cc1ccc(NC(=O)Nc2nccn(-c3ccc(Br)cc3)c2=O)cc1F
10,628,COc1ccc(NC(=O)N2CCCC(CN3CCc4ccccc4C3)C2)cc1OC (stereo not given)
11,1140,Cc1cccc(-c2noc(C3CCCN3C(=O)c3cccc(Cl)c3)n2)c1 (stereo not given)
12,1320,CCOc1ccc(C2Cn3nnc(-c4nc(-c5cccc(Cl)c5)no4)c3CO2)cc1 (stereo not given)
13,845,CCOc1ccc(-c2[nH]ncc2CNS(=O)(=O)Cc2cc(F)cc(F)c2)cc1
14,736,CCOC(=O)c1nc(Nc2ccc(OC)c(OC)c2)c2ccccc2n1
15,848,COc1ccc(CNC(=O)C(C)n2sc3ccccc3c2=O)cc1OC (stereo not given)
16,942,Cc1sc(NC(=O)c2cccs2)nc1-c1ccc2c(c1)N(C)C(=O)CO2
17,852,COc1ccc(OCC(=O)Nc2ccc3c(c2)CCCN3C(=O)C2CC2)cc1
